# Data as given in patent publication US20260347338A1, “PYRIMIDINE/PYRIDINE DERIVATIVES OR SALTS THEREOF AND PHARMACEUTICAL COMPOSITIONS COMPRISING THE SAME” (YUHAN CORPORATION, priority 2023, published 2026).
# Structures can show the parent of a compound that is named as a salt.
# Target: T1, human recombinant HPK1 (Homo sapiens, UniProt Q92918)
# T1 construct: purchased BPS Bioscience
# Assay: Inhibitory activity against human recombinant HPK1 (TR-FRET)
# Format: biochemical
# Conditions: ULight-p70S6K peptide, ATP at Km, room temperature, 1 hour, 0.32 to 1000 nM compound
# Summary of the method: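 IC50 classes A–D use 10, 50 and 100 nM cut-offs, derived from TR-FRET signal inhibition relative to DMSO controls. Human recombinant HPK1 phosphorylated ULight-p70S6K peptide at Km ATP for 1 h, room temperature, pH 7.4; test range 0.32–1000 nM final, detection with Eu-labelled antibody after EDTA quench.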
# T1 sequence (Q92918 whole entry): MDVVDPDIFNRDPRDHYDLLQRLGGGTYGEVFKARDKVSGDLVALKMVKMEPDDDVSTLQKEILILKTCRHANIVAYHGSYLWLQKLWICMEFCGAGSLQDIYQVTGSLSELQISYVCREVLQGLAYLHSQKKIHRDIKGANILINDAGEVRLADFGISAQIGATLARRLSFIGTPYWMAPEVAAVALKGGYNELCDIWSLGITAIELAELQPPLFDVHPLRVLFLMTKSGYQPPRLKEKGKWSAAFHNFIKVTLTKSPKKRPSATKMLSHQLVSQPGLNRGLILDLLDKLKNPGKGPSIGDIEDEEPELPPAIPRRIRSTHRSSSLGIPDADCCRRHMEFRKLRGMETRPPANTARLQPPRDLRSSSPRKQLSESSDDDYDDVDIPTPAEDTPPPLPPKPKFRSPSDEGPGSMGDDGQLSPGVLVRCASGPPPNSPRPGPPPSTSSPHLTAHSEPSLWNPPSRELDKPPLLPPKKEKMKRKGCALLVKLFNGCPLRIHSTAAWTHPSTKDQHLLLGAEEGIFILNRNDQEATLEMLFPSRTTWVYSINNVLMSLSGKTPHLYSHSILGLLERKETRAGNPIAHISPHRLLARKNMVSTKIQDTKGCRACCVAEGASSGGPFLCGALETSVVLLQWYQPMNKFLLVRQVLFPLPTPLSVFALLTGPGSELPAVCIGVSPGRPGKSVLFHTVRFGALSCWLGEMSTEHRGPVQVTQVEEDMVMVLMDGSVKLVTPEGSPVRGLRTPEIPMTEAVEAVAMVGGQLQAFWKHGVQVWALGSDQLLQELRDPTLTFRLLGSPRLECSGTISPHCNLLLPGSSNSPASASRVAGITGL
row,Structure (SMILES),IC50 [nM]
1,"COc1cccc(F)c1-c1nc(Nc2cc(N3CCC[C@H](N)C3)c(C#CC3CCOCC3)cn2)ccc1[N+](=O)[O-] [Example 155, 4-((S)-3-aminopiperidin-1-yl)-N-(6-(2-fluoro-6-methoxyphenyl)-5-nitropyridin-2-yl)-5-((tetrahydro-2H-pyran-4-yl)ethynyl)pyridin-2-amine hydrochloride]",≤ 10
2,"COc1cccc(F)c1-c1nccc(Nc2cc(N3CCC[C@](C)(N)C3)c(-c3cnn(C(F)F)c3)cn2)n1 [Example 206, (S)-N-(4-(3-amino-3-methylpiperidin-1-yl)-5-(1-(difluoromethyl)-1H-pyrazol-4-yl)pyridin-2-yl)-2-(2-fluoro-6-methoxyphenyl)pyrimidin-4-amine hydrochloride]",≤ 10
3,"COc1cccc(F)c1-c1nccc(Nc2cc(N3CCC[C@H](O)C3)c(-c3ccc(CN4CCC(N(C)C)C4)nc3)cn2)n1 (stereo partly drawn) [Example 48, (3S)-1-(6′-((3-(dimethylamino)pyrrolidin-1-yl)methyl)-6-((2-(2-fluoro-6-methoxyphenyl)pyrimidin-4-yl)amino)-[3,3′-bipyridin]-4-yl)piperidin-3-ol]",≤ 10
4,"COc1cccc(F)c1-c1nccc(Nc2cc(N3CCC[C@H](N)C3)c(C#Cc3cnn(CC(F)F)c3)cn2)n1 [Example 165, (S)-N-(4-(3-aminopiperidin-1-yl)-5-((1-(2,2-difluoroethyl)-1H-pyrazol-4-yl)ethynyl)pyridin-2-yl)-2-(2-fluoro-6-methoxyphenyl)pyrimidin-4-amine hydrochloride]",≤ 10
5,"COc1cccc(F)c1-c1nc(Nc2cc(N3CC[C@@H](F)[C@H](N)C3)c(-c3cnn(C(F)F)c3)cn2)ccc1[N+](=O)[O-] [Example 334, 4-((3R,4R)-3-amino-4-fluoropiperidin-1-yl)-5-(1-(difluoromethyl)-1H-pyrazol-4-yl)-N-(6-(2-fluoro-6-methoxyphenyl)-5-nitropyridin-2-yl)pyridin-2-amine hydrochloride]",≤ 10
6,"COc1cccc(F)c1-c1nc(Nc2cc(N3CCC[C@H](O)C3)c(C(=O)NC3CC(O)C3)cn2)ccc1[N+](=O)[O-] (stereo partly drawn) [Example 196, 6-((6-(2-fluoro-6-methoxyphenyl)-5-nitropyridin-2-yl)amino)-N-(3-hydroxycyclobutyl)-4-((S)-3-hydroxypiperidin-1-yl)nicotinamide]",≤ 10
7,"COc1cccc(F)c1-c1nccc(Nc2cc(N3CCC[C@H](O)C3)c(-c3ccc(CN4CCC(O)CC4)nc3)cn2)n1 [Example 33, (S)-1-(6-((2-(2-fluoro-6-methoxyphenyl)pyrimidin-4-yl)amino)-6′-((4-hydroxypiperidin-1-yl)methyl)-[3,3′-bipyridin]-4-yl)piperidin-3-ol]",10 to 50
8,"COc1cccc(F)c1-c1nccc(Nc2cc(N3CCC[C@H](O)C3)c(C#Cc3cnn(C(F)(F)F)c3)cn2)n1 [Example 8, (S)-1-(2-((2-(2-fluoro-6-methoxyphenyl)pyrimidin-4-yl)amino)-5-((1-(trifluoromethyl)-1H-pyrazol-4-yl)ethynyl)pyridin-4-yl)piperidin-3-ol]",10 to 50
9,"COc1cccc(F)c1-c1nccc(Nc2cc(N3CCC[C@H](O)C3)c(-c3ccc(CN4CCN(C)CC4)nc3)cn2)n1 [Example 30, (S)-1-(6-((2-(2-fluoro-6-methoxyphenyl)pyrimidin-4-yl)amino)-6′-((4-methylpiperazin-1-yl)methyl)-[3,3′-bipyridin]-4-yl)piperidin-3-ol]",10 to 50
10,"COc1cccc(F)c1-c1nc(Nc2cc(N3CC[C@H](F)[C@H](N)C3)c(-c3cnn(C(F)F)c3)cn2)ccc1C#N [Example 322, 6-((4-((3R,4S)-3-amino-4-fluoropiperidin-1-yl)-5-(1-(difluoromethyl)-1H-pyrazol-4-yl)pyridin-2-yl)amino)-2-(2-fluoro-6-methoxyphenyl)nicotinonitrile hydrochloride]",≤ 10
11,"COc1cccc(F)c1-c1nccc(Nc2cc(N3CCC[C@H](N)C3)c(-c3ccc(N4CCCCC4)nc3)cn2)n1 [Example 120, (S)-4-(3-aminopiperidin-1-yl)-N-(2-(2-fluoro-6-methoxyphenyl)pyrimidin-4-yl)-6′-(piperidin-1-yl)-[3,3′-bipyridin]-6-amine hydrochloride]",≤ 10
12,"COc1cccc(F)c1-c1nccc(Nc2cc(N3CCC[C@H](N)C3)c(-c3ccc(N4CCCC4)nc3)cn2)n1 [Example 119, (S)-4-(3-aminopiperidin-1-yl)-N-(2-(2-fluoro-6-methoxyphenyl)pyrimidin-4-yl)-6′-(pyrrolidin-1-yl)-[3,3′-bipyridin]-6-amine hydrochloride]",≤ 10
13,"COc1cc(F)cc(F)c1-c1nccc(Nc2cc(N3CCC[C@H](N)C3)c(-c3cnn(CC(F)(F)F)c3)cn2)n1 [Example 109, (S)-N-(4-(3-aminopiperidin-1-yl)-5-(1-(2,2,2-trifluoroethyl)-1H-pyrazol-4-yl)pyridin-2-yl)-2-(2,4-difluoro-6-methoxyphenyl)pyrimidin-4-amine]",≤ 10
14,"N[C@H]1CCCN(c2cc(Nc3ccnc(-c4c(F)cccc4CO)n3)ncc2-c2cnn(C(F)F)c2)C1 [Example 242, (S)-(2-(4-((4-(3-aminopiperidin-1-yl)-5-(1-(difluoromethyl)-1H-pyrazol-4-yl)pyridin-2-yl)amino)pyrimidin-2-yl)-3-fluorophenyl)methanol hydrochloride]",≤ 10
15,"COc1cc(F)cc(F)c1-c1nccc(Nc2cc(N3C[C@@H](N)C[C@@H](F)C3)c(-c3cnn(C(C)C)c3)cn2)n1 [Example 335, N-(4-((3S,5R)-3-amino-5-fluoropiperidin-1-yl)-5-(1-isopropyl-1H-pyrazol-4-yl)pyridin-2-yl)-2-(2,4-difluoro-6-methoxyphenyl)pyrimidin-4-amine]",≤ 10

# Next, values leading:
row,IC50 [nM],Structure (SMILES)
1,≤ 10,"COc1cccc(F)c1-c1nccc(Nc2cc(N3CC[C@H](F)[C@H](N)C3)c(-c3cnn(C(F)F)c3)cn2)n1 [Example 207, N-(4-((3R,4S)-3-amino-4-fluoropiperidin-1-yl)-5-(1-(difluoromethyl)-1H-pyrazol-4-yl)pyridin-2-yl)-2-(2-fluoro-6-methoxyphenyl)pyrimidin-4-amine hydrochloride]"
2,≤ 10,"COc1cccc(F)c1-c1nccc(Nc2cc(N3CCC[C@H](O)C3)c(-c3cnn(CC4CC4)c3)cn2)n1 [Example 17, (S)-1-(5-(1-(cyclopropylmethyl)-1H-pyrazol-4-yl)-2-((2-(2-fluoro-6-methoxyphenyl)pyrimidin-4-yl)amino)pyridin-4-yl)piperidin-3-ol]"
3,≤ 10,"COc1cccc(F)c1-c1nccc(Nc2cc(N3CCC[C@H](O)C3)c(-c3cnn(C(C)C)c3)cn2)n1 [Example 13, (S)-1-(2-((2-(2-fluoro-6-methoxyphenyl)pyrimidin-4-yl)amino)-5-(1-isopropyl-1H-pyrazol-4-yl)pyridin-4-yl)piperidin-3-ol]"
4,≤ 10,"COc1cccc(F)c1-c1nccc(Nc2cc(N3CCC[C@H](N)C3)c(-c3ccc(N4CCOCC4)nc3)cn2)n1 [Example 121, (S)-4-(3-aminopiperidin-1-yl)-N-(2-(2-fluoro-6-methoxyphenyl)pyrimidin-4-yl)-6′-morpholino-[3,3′-bipyridin]-6-amine hydrochloride]"
5,≤ 10,"COc1cccc(F)c1-c1nc(Nc2cc(N3CCC[C@H](O)C3)c(-c3cnn(C4CCOCC4)c3)cn2)ccc1C(N)=O [Example 112, 2-(2-fluoro-6-methoxyphenyl)-6-((4-((S)-3-hydroxypiperidin-1-yl)-5-(1-(tetrahydro-2H-pyran-4-yl)-1H-pyrazol-4-yl)pyridin-2-yl)amino)nicotinamide]"
6,≤ 10,"COc1cccc(F)c1-c1nccc(Nc2cc(N3CCC[C@H](N)C3)c(-c3cnc4c(c3)OCCN4C)cn2)n1 [Example 256, (S)-N-(4-(3-aminopiperidin-1-yl)-5-(4-methyl-3,4-dihydro-2H-pyrido[3,2-b][1,4]oxazin-7-yl)pyridin-2-yl)-2-(2-fluoro-6-methoxyphenyl)pyrimidin-4-amine hydrochloride]"
7,≤ 10,"COc1cccc(F)c1-c1nc(Nc2cc(N3CCC[C@H](O)C3)c(-c3cnn(C4CCOCC4)c3)cn2)ccc1C#N [Example 59, 2-(2-fluoro-6-methoxyphenyl)-6-((4-((S)-3-hydroxypiperidin-1-yl)-5-(1-(tetrahydro-2H-pyran-4-yl)-1H-pyrazol-4-yl)pyridin-2-yl)amino)nicotinonitrile]"
8,≤ 10,"COc1cccc(F)c1-c1nccc(Nc2cc(N3CCC[C@H](N)C3)c(-c3cnn(C4CNC4)c3)cn2)n1 [Example 168, (S)-N-(4-(3-aminopiperidin-1-yl)-5-(1-(azetidin-3-yl)-1H-pyrazol-4-yl)pyridin-2-yl)-2-(2-fluoro-6-methoxyphenyl)pyrimidin-4-amine hydrochloride]"
9,≤ 10,"COc1cccc(F)c1-c1nccc(Nc2cc(N3CCC4(CCNC4)CC3)c(-c3cnn(C4CCOCC4)c3)cn2)n1 [Example 92, N-(4-(2,8-diazaspiro[4.5]decan-8-yl)-5-(1-(tetrahydro-2H-pyran-4-yl)-1H-pyrazol-4-yl)pyridin-2-yl)-2-(2-fluoro-6-methoxyphenyl)pyrimidin-4-amine hydrochloride]"
10,10 to 50,"COc1cccc(F)c1-c1nccc(Nc2cc(N3CC[C@@H](NC(C)=O)C3)c(-c3cnn(C4CCOCC4)c3)cn2)n1 [Example 126, (R)-N-(1-(2-((2-(2-fluoro-6-methoxyphenyl)pyrimidin-4-yl)amino)-5-(1-(tetrahydro-2H-pyran-4-yl)-1H-pyrazol-4-yl)pyridin-4-yl)pyrrolidin-3-yl)acetamide]"
11,10 to 50,"COc1cccc(F)c1-c1nc(Nc2cc(N3CCC[C@H](O)C3)c(-c3cnn(C4CCOCC4)c3)cn2)ccc1C(=O)N(C)C [Example 113, 2-(2-fluoro-6-methoxyphenyl)-6-((4-((S)-3-hydroxypiperidin-1-yl)-5-(1-(tetrahydro-2H-pyran-4-yl)-1H-pyrazol-4-yl)pyridin-2-yl)amino)-N,N-dimethylnicotinamide]"
